Molecular target: T1, CCR-3 receptor (Homo sapiens, UniProt P51677)
T1 construct: expressed in transfected cells; host or cells: L1.2 (murine pre-B lymphoma line)
T1 sequence (P51677 1-355): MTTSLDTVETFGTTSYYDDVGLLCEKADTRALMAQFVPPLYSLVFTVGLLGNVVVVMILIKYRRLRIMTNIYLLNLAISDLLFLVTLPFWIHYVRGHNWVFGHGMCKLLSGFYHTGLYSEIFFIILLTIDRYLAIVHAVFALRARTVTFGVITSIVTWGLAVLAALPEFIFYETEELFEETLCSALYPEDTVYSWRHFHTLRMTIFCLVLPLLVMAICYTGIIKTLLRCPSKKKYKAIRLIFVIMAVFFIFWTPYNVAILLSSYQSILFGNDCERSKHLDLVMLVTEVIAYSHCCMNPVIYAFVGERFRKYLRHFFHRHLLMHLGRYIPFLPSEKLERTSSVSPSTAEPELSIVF
Assay: CCR-3 Receptor Binding Assay in vitro (inhibition of 125I eotaxin binding to CCR-3 L1.2 transfectant cells)
Conditions: concentration reducing 125I-eotaxin binding to CCR-3 L1.2 transfected cells by 50%; read-out: CCR-3 IC50
Procedure: The CCR-3 antagonistic activity of the compounds of the invention was determined by their ability to inhibit the binding of ^125I eotaxin to CCR-3 L1.2 transfectant cells (see Ponath, P. D. et al., J. Exp. Med., Vol. 183, 2437-2448, (1996)).
The assay was performed in Costar 96-well polypropylene round bottom plates. Test compounds were dissolved in DMSO and then diluted with binding buffer (50 mM HEPES, 1 mM CaCl2, 5 mM MgCl2, 0.5% bovine serum albumin (BSA), 0.02% sodium azide, pH 7.24) such that the final DMSO concentration was 2%. Each well was filled with 25 μl of the test solution or only buffer with DMSO (control samples) followed by the addition of 25 μl of ^125I-eotaxin (100 pmol) (NEX314, New England Nuclear, Boston, Mass.) and 1.5×10^5 of the CCR-3 L1.2 transfected cells in 25 μl binding buffer. The final reaction volume was 75 μl.
After incubating the reaction mixture for 1 h at room temperature, the reaction was terminated by filtering the reaction mixture through polyethylenimine treated Packard Unifilter GF/C filter plate (Packard, Chicago, Ill.). The filters were washed four times with ice cold wash buffer containing 10 mM HEPES and 0.5M sodium chloride (pH 7.2) and dried at 65° C. for approximately 10 min. 25 μl/well of Microscint-20™ scintillation fluid (Packard) was added and the radioactivity retained on the filters was determined by using the Packard TopCount™.
The IC50 value (concentration of test compound required to reduce ^125I-eotaxin binding to the CCR-3 L 1.2 transfected cells by 50%) for compounds in Table I of the invention was between 0.02 and 200 μM, preferably between 0.02 and 10 μM.

IC50	Compound
12000 nM	COc1cc(-c2cnc(CCC(=O)NCC3CCCN(Cc4cccc(Cl)c4Cl)C3)nc2)cc(OC)c1OC (centres unmarked) [Compound 57, N-[1-(2,3-dichloro-benzyl)-piperidin-3-ylmethyl]-3-[5-(3,4,5-trimethoxy-phenyl)-pyrimidin-2-yl]-propionamide]
276 nM	COc1ccc(-c2cnc(SCC(=O)NCC3CCCN(Cc4ccc5c(c4)CCC5)C3)nc2)cc1OC (centres unmarked) [Compound 16, 2-[5-(3,4-dimethoxy-phenyl)-pyrimidin-2-ylsulfanyl]-N-(1-indan-5-ylmethyl-piperidin-3-ylmethyl)-acetamide]
152 nM	COc1ccc(-c2cnc(CCC(=O)NCC3CCCN(Cc4ccc(Cl)c(Cl)c4)C3)nc2)cc1OC (centres unmarked) [Compound 9, N-[1-(3,4-dichloro-benzyl)-piperidin-3-ylmethyl]-3-[5-(3,4-dimethoxy-phenyl)-pyrimidin-2-yl]-propionamide]
731 nM	COc1ccc(-c2cnc(SCC(=O)NCC3CCCN(Cc4ccc5cc[nH]c5c4)C3)nc2)cc1 (centres unmarked) [Compound 30]
5740 nM	COc1cccc(-c2cnc(OCC(=O)NCC3CCCN(Cc4cccc(Cl)c4Cl)C3)nc2)c1 (centres unmarked) [Compound 52, N-[1-(2,3-dichloro-benzyl)-piperidin-3-ylmethyl]-2-[5-(3-methoxy-phenyl)-pyrimidin-2-yloxy]-acetamide]
1560 nM	O=C(CSc1ncc(-c2ccccc2)cn1)NCC1CCCN(Cc2ccc3c(c2)OCO3)C1 (centres unmarked) [Compound 41, N-(1-benzo[1,3]-dioxol-5-ylmethyl-piperidin-3-ylmethyl)-2-(5-phenyl-pyrimidin-2-ylsulfanyl)-acetamide]
2410 nM	O=C(CSc1ncc(-c2ccccc2)cn1)NCC1CCCN(Cc2ccc(Cl)c(C(F)(F)F)c2)C1 (centres unmarked) [Compound 48, N-[1-(4-chloro-3-trifluoromethyl-benzyl)-piperidin-3-ylmethyl]-2-(5-phenyl-pyrimidin-2-yl-sulfanyl)-acetamide]
29 nM	COc1ccc(-c2cnc(SCC(=O)NCC3CCCN(Cc4ccc(Cl)c(Cl)c4)C3)nc2)cc1OC (centres unmarked) [Compound 2, N-[1-(3,4-dichloro-benzyl)-piperidin-3-ylmethyl]-2-[5-(3,4-dimethoxy-phenyl)-pyrimidin-2-ylsulfanyl]-acetamide]
2080 nM	COc1ccc(-c2cnc(CCC(=O)NCC3CCCN(Cc4ccc5c(c4)OCO5)C3)nc2)cc1 (centres unmarked) [Compound 44, N-(1-benzo[1,3]-dioxol-5-ylmethyl-piperidin-3-ylmethyl)-3-[5-(4-methoxy-phenyl)-pyrimidin-2-yl]-propionamide]
4640 nM	COc1ccc(-c2cnc(OCC(=O)NCC3CCCN(Cc4ccc5c(c4)OCO5)C3)nc2)cc1OC (centres unmarked) [Compound 51, N-(1-benzo[1,3]-dioxol-5-ylmethyl-piperidin-3-ylmethyl)-2-[5-(3,4-dimethoxy-phenyl)-pyrimidin-2-yloxy]-acetamide]
1370 nM	COc1ccc(-c2cnc(SCC(=O)NCC3CCCN(Cc4ccc(F)c(F)c4)C3)nc2)cc1 (centres unmarked) [Compound 39, N-[1-(3,4-difluoro-benzyl)-piperidin-3-ylmethyl]-2-[5-(4-methoxy-phenyl)-pyrimidin-2-ylsulfanyl]-acetamide]
1350 nM	O=C(CSc1ncc(-c2ccccc2)cn1)NCC1CCCN(Cc2ccc(O)c(O)c2)C1 (centres unmarked) [Compound 38, N-[1-(3,4-dihydroxy-benzyl)-piperidin-3-ylmethyl]-2-(5-phenyl-pyrimidin-2-ylsulfanyl)-acetamide]
1390 nM	COc1ccc(-c2cnc(SCC(=O)NCC3CCCN(Cc4ccc5c(c4)CCC5)C3)nc2)cc1 (centres unmarked) [Compound 40]
164 nM	COc1ccc(-c2cnc(CCC(=O)NCC3CCCN(Cc4ccc(Cl)c(Cl)c4)C3)nc2)cc1OC (centres unmarked) [Compound 10, N-[1-(3,4-dichloro-benzyl)-piperidin-3-ylmethyl]-3-[5-(3,4-dimethoxy-phenyl)-pyrimidin-2-yl]-propionamide]
1060 nM	COc1ccc(-c2cnc(SCC(=O)NCC3CCCN(Cc4ccccc4)C3)nc2)cc1OC (centres unmarked) [Compound 36, N-(1-benzyl-piperidin-3-ylmethyl)-2-[5-(3,4-dimethoxy-phenyl)-pyrimidin-2-ylsulfanyl]-acetamide]
25 nM	COc1ccc(-c2cnc(SCC(=O)NCC3CCCN(Cc4ccc5cc[nH]c5c4)C3)nc2)cc1OC (centres unmarked) [Compound 1]
107 nM	COc1ccc(-c2cnc(CCC(=O)NCC3CCCN(Cc4ccc(Br)c(Br)c4)C3)nc2)cc1OC (centres unmarked) [Compound 8, N-[1-(3,4-dibromo-benzyl)-piperidin-3-ylmethyl]-3-[5-(3,4-dimethoxy-phenyl)-pyrimidin-2-yl]-propionamide]
1560 nM	O=C(CSc1ncc(-c2ccccc2)cn1)NCC1CCCN(Cc2ccc(Cl)c(Cl)c2)C1 (centres unmarked) [Compound 42, N-[1-(3,4-dichloro-benzyl)-piperidin-3-ylmethyl]-2-(5-phenyl-pyrimidin-2-ylsulfanyl)-acetamide]
66 nM	COc1ccc(-c2cnc(SCC(=O)NCC3CCCN(Cc4cc(Br)c(Br)s4)C3)nc2)cc1OC (centres unmarked) [Compound 63, N-[1-(4,5-dibromo-thiophen-2-ylmethyl)-piperidin-3-ylmethyl]-2-[5-(3,4-dimethoxy-phenyl)-pyrimidin-2-ylsulfanyl]-acetamide]
2810 nM	O=C(CSc1ncc(-c2ccccc2)cn1)NCC1CCCN(Cc2ccc(F)c(F)c2)C1 (centres unmarked) [Compound 49, N-[1-(3,4-difluoro-benzyl)-piperidin-3-ylmethyl]-2-(5-phenyl-pyrimidin-2-ylsulfanyl)-acetamide]
973 nM	COc1ccc(-c2cnc(SCC(=O)NCC3CCCN(Cc4ccc(Cl)c(F)c4)C3)nc2)cc1OC (centres unmarked) [Compound 33, N-[1-(4-chloro-3-fluoro-benzyl)-piperidin-3-ylmethyl]-2-[5-(3,4-dimethoxy-phenyl)-pyrimidin-2-ylsulfanyl]-acetamide]
507 nM	COc1ccc(-c2cnc(OCC(=O)NCC3CCCN(Cc4cccc(Cl)c4Cl)C3)nc2)cc1OC (centres unmarked) [Compound 26, N-[1-(2,3-dichloro-benzyl)-piperidin-3-ylmethyl]-2-[5-(3,4-dimethoxy-phenyl)-pyrimidin-2-yloxy]-acetamide]
81 nM	COc1ccc(-c2cnc(SCC(=O)NCC3CCCN(Cc4cc(Cl)c(Cl)s4)C3)nc2)cc1OC (centres unmarked) [Compound 64, N-[1-(4,5-dichloro-thiophen-2-ylmethyl)-piperidin-3-ylmethyl]-2-[5-(3,4-dimethoxy-phenyl)-pyrimidin-2-ylsulfanyl]-acetamide]
128000 nM	COc1cccc(-c2cnc(OCC(=O)NCC3CCCN(Cc4ccc5c(c4)OCO5)C3)nc2)c1 (centres unmarked) [Compound 62, N-(1-benzo[1,3]-dioxol-5-ylmethyl-piperidin-3-ylmethyl)-2-[5-(3-methoxy-phenyl)-pyrimidin-2-yloxy]-acetamide]
994 nM	COc1ccc(-c2cnc(CCC(=O)NCC3CCCN(Cc4ccc5c(c4)CCC5)C3)nc2)cc1OC (centres unmarked) [Compound 34, 3-[5-(3,4-dimethoxy-phenyl)-pyrimidin-2-yl]-N-(1-indan-5-yl-methyl-piperidin-3-ylmethyl)-propion-amide]
2110 nM	COc1ccc(-c2cnc(OCC(=O)NCC3CCCN(Cc4cccc(Cl)c4Cl)C3)nc2)cc1 (centres unmarked) [Compound 46, N-[1-(2,3-dichloro-benzyl)-piperidin-3-ylmethyl]-2-[5-(4-methoxy-phenyl)-pyrimidin-2-yloxy]-acetamide]
205 nM	COc1ccc(-c2cnc(SCC(=O)NCC3CCCN(Cc4ccc5c(c4)OCO5)C3)nc2)cc1OC (centres unmarked) [Compound 13, N-(1-benzo[1,3]-dioxol-5-ylmethyl-piperidin-3-ylmethyl]-2-[5-(3,4-dimethoxy-phenyl)-pyrimidin-2-ylsulfanyl]-acetamide]
263 nM	COc1ccc(-c2cnc(SCC(=O)NCC3CCCN(Cc4ccc5ccccc5c4)C3)nc2)cc1OC (centres unmarked) [Compound 15, 2-[5-(3,4-dimethoxy-phenyl)-pyrimidin-2-ylsulfanyl]-N-(1-naphthalen-2-yl-methyl-piperidin-3-ylmethyl)-acetamide]

Same assay, conditions: stated in text for the compound where Z is —C(═O)—; assay not given; read-out: IC50

IC50	Compound
1920 nM	COc1ccc(-c2cnc(SCC(=O)NCC3CCCN(C(=O)CCc4ccc(Cl)cc4)C3)nc2)cc1OC (racemic) [Compound 70, (±)-N-{1-[3-(4-Chlorophenyl)-propionyl]-piperidin-3-ylmethyl}-2-[5-(3,4-dimethoxy-phenyl)-pyrimidin-2-ylsulfanyl]-acetamide]

From patent US6984643B2, “2,5-substituted pyrimidine derivatives-CCR-3 receptor antagonists” (Roche Palo Alto LLC, priority 2002, dated 2006)
